The text below walks through data of US20240148821A1, “PHARMACEUTICAL USE OF CYCLIC PEPTIDE COMPOUND” (CHUGAI SEIYAKU KABUSHIKI KAISHA, priority 2021, published 2024).

Numbered stars: 1 amine (or outer) side, 2 acyl side, 3 side chain; on linkers, the order of the positions; unused ones are H or OH. Bridge positions count the residues as written; N and C are the ends. Square brackets hold non-standard residues; d marks the D form. Peptide text beside a SMILES is read from it. * marks the point of attachment. hPhe(3-Cl-4-CF3) = N[C@@H](CCc1ccc(C(F)(F)F)c(Cl)c1)C(=O)O; NMePhe(4-CF3) = CN[C@@H](Cc1ccc(C(F)(F)F)cc1)C(=O)O; NMedβ3hAla = C[C@H](CC(=O)[*:2])N(C)[*:1]; NMeGly(cPent) = CN[C@H](C(=O)O)C1CCCC1; NMeCha = CN[C@@H](CC1CCCCC1)C(=O)O; Hyp = O=C(O)[C@@H]1C[C@@H](O)CN1; NMeChg = CN[C@H](C(=O)O)C1CCCCC1; NMeI = CC[C@H](C)[C@H](NC)C(=O)O; NMeD = CN[C@@H](CC(=O)O)C(=O)O; Gly(N-CH2CH2OH) = O=C(O)CNCCO; NMeL = CN[C@@H](CC(C)C)C(=O)O; NMeV = CN[C@H](C(=O)O)C(C)C; d(β3hA) = C[C@@H](N)CC(=O)O; Pip = O=C(O)[C@@H]1CCCCN1; NMeA = CN[C@@H](C)C(=O)O; Piperidide = C1CCN(*)CC1; Pyrrolidide = C1CCN(*)C1; dNMeA = CN[C@H](C)C(=O)O; Ac5c = NC1(C(=O)O)CCCC1; Aze = O=C(O)[C@@H]1CCN1; Ac4c = NC1(C(=O)O)CCC1; Sar = CNCC(=O)O

The target in the assay is protein-protein interaction between Kras and SOS1 (biotin-tagged human Kras loaded with GDP, His-tagged human SOS1) (Homo sapiens (Human), UniProt P01116, G12D). The assay is described as follows: Protein-protein interaction inhibition between Kras and SOS1 (KrasG12D-SOS PPI) using AlphaScreen.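 Note: kras produced in E. coli, Ni-coupled donor beads and streptavidin acceptor beads, excitation 680 nm with emission detected at 520–620 nm via singlet oxygen transfer.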 The class given is biochemical. Particulars: AlphaScreen; biotin-tagged human Kras loaded with GDP, His-tagged human SOS1; read-out: KRAS G12D-SOS PPI IC50. (In general: Alpha assays give light when donor and acceptor beads are brought close together.)
As for `CC[C@H](C)[C@@H]1NC(=O)[C@H](C)N(C)C(=O)C[C@@H](C)NC(=O)[C@H](C2CCCC2)N(C)C(=O)C2(CCC2)NC(=O)[C@@H]2CCCN2C(=O)[C@H](CCc2ccc(C(F)(F)F)c(Cl)c2)NC(=O)CN(C)C(=O)[C@H](Cc2ccc(C(F)(F)F)cc2)N(C)C(=O)CN(C)C(=O)CN(C)C1=O` [Compound 1486] (cyclo([Ac4c][NMeGly(cPent)][d(β3hA)][NMeA]I[Sar][Sar][NMePhe(4-CF3)][Sar][hPhe(3-Cl-4-CF3)]P)), the IC50 (as a rule, the concentration that gives 50% inhibition) is 0.5 nM.

Turning to `CCO[C@@H]1C[C@H]2C(=O)NC3(CCC3)C(=O)N(C)[C@@H]([C@@H](C)CC)C(=O)N(C)[C@H](C)CC(=O)N(C)[C@@H](CC(C)C)C(=O)N[C@@H]([C@@H](C)CC)C(=O)N(C)[C@@H](C)C(=O)N3CC[C@H]3C(=O)N(C)[C@@H](Cc3ccc(C(F)(F)F)cc3)C(=O)N(C)CC(=O)N[C@@H](CCc3ccc(C(F)(F)F)c(Cl)c3)C(=O)N2C1` [Compound 99] (cyclo([Ac4c][NMeI][NMedβ3hAla][NMeL]I[NMeA][Aze][NMePhe(4-CF3)][Sar][hPhe(3-Cl-4-CF3)][Hyp](Et))), the IC50 is 2.9 nM.

With `CC[C@H](C)[C@@H]1NC(=O)[C@H](CC(C)C)N(C)C(=O)C[C@@H](C)NC(=O)[C@H](C(C)C)N(C)C(=O)C2(CCCC2)NC(=O)[C@@H]2CCCN2C(=O)[C@H](CCc2ccc(C(F)(F)F)c(Cl)c2)NC(=O)CN(C)C(=O)[C@H](CC2CCCCC2)N(C)C(=O)[C@@H]2CCN2C(=O)[C@@H]2CCCCN2C1=O` [Compound 416] (cyclo([Ac5c][NMeV][d(β3hA)][NMeL]I[Pip][Aze][NMeCha][Sar][hPhe(3-Cl-4-CF3)]P)), the IC50 was determined as 54 nM.

Turning to `CC[C@H](C)[C@@H]1NC(=O)[C@H](C)N(C)C(=O)C[C@@H](C)NC(=O)[C@H](C2CCCC2)N(C)C(=O)C2(CCCC2)NC(=O)[C@@H]2CCCN2C(=O)[C@H](CCc2ccc(C(F)(F)F)c(Cl)c2)NC(=O)[C@@H](C)N(C)C(=O)[C@H](C(C)C)N(C)C(=O)[C@@H]2CCN2C(=O)[C@H](C)N(C)C1=O` [Compound 1066] (cyclo([Ac5c][NMeGly(cPent)][d(β3hA)][NMeA]I[NMeA][Aze][NMeV][dNMeA][hPhe(3-Cl-4-CF3)]P)), the IC50 was determined as 24 nM.

With `CC[C@H](C)[C@@H]1NC(=O)[C@H](CC(C)C)N(C)C(=O)C[C@@H](C(=O)N2CCCC2)N(C)C(=O)[C@H](C(C)C)N(C)C(=O)C2(CCCC2)NC(=O)[C@@H]2CCCN2C(=O)[C@H](CCc2ccc(C(F)(F)F)c(Cl)c2)NC(=O)CN(C)C(=O)[C@H](CC2CCCCC2)N(C)C(=O)[C@@H]2CCN2C(=O)CN(C)C1=O` [Compound 1670] ([NMeL]I[Sar][Aze][NMeCha][Sar][hPhe(3-Cl-4-CF3)]P[Ac5c][NMeV][NMeD]-Pyrrolidide; lactam N-11), the IC50 was 1 nM.

Consider `CC[C@H](C)[C@@H]1NC(=O)[C@H](CC(C)C)N(C)C(=O)C[C@@H](C(=O)N2CCCCC2)N(C)C(=O)[C@H](C2CCCCC2)N(C)C(=O)C2(CCCC2)NC(=O)CN(CCO)C(=O)[C@H](CCc2ccc(C(F)(F)F)c(Cl)c2)NC(=O)CN(C)C(=O)[C@H](CC2CCCCC2)N(C)C(=O)CN(C)C(=O)CN(C)C1=O` [Compound 2037, (11S,17S,26S,29S,33S,36S)-11-[2-[3-chloro-4-(trifluoromethyl)phenyl]ethyl]-36-cyclohexyl-17-(cyclohexylmethyl)-9-(2-hydroxyethyl)-29-isobutyl-15,18,21,24,30,34,37-heptamethyl-26-[(1S)-1-methylpropyl]-33-(piperidine-1-carbonyl)-6,9,12,15,18,21,24,27,30,34,37-undecazaspiro[4.33]octatriacontane-7,10,13,16,19,22,25,28,31,35,38-undecone] ([NMeL]I[Sar][Sar][NMeCha][Sar][hPhe(3-Cl-4-CF3)][Gly(N-CH2CH2OH)][Ac5c][NMeChg][NMeD]-Piperidide; lactam N-11), for which the IC50 is 0.58 nM.
